Data: article PMC5011932, “Comparative pharmacokinetics and pharmacodynamics of intravenous artelinate versus artesunate in uncomplicated Plasmodium coatneyi-infected rhesus monkey model” (Malaria Journal, 2016)
Values joined by “and” are separate entries in the source; they are usually repeats but may differ in a detail not shown here. Equal values may be shown once.

Key:
Plasmodium coatneyi = test: In vivo pharmacodynamics (parasite clearance) in uncomplicated P. coatneyi-infected splenectomized rhesus monkey model
Experimental: Twenty-two adult colony-born, Indian-origin rhesus macaques (Macaca mulatta) naïve monkeys were splenectomized and recovered well more than 1 month prior to entering the study. […] Twenty-two animals were randomized to two experiments of 11 monkeys. […] The control monkeys received intramuscular quinine treatment and the experimental animals received intravenous artemisinin candidates.
Based on our previous model validation, blood smears were performed to detect malaria parasites starting prior to inoculation on day 0 and continued daily (0700–0800 h). The monkeys were physically restrained in the squeeze cage restraint apparatus and approximately 0.1–0.2 ml whole blood was collected from each monkey by lancet puncture of the lateral auricular vein. Thick and thin smears were made on the same microscope glass slide and subsequently fixed in methanol and stained with Giemsa. When the smears were positive, white blood cell count (WBC) and/or red blood cell count (RBC) were also performed using automated haematology analyzer Sysmex K800 to calculate parasite density. Haematocrits were checked as needed. At study days 6–12, additional blood samples were obtained from all animals in the afternoon (1500–1600 h) to monitor parasitaemia levels. Daily blood smears were continued until two consecutive days with negative smears. Then the smear monitoring schedule was reduced to two times weekly for 2 weeks and then weekly for 6 weeks after completion of the last treatment.
Blood smear staining and parasitaemia determination took about 2 h. […] The control monkey received quinine treatment and the ten experimental animals received intravenous artemisinin derivative candidate.
After a week wash-out and recovery period, P. coatneyi (1 mL of >50,000 parasitized RBCs per microlitre or 5 × 10^6 RBC with a 1 % parasitaemia) were inoculated from a donor monkey into all the monkeys. The treatment was initiated at day 6 after inoculation at a parasitaemia ≥3 % or >200,000 parasites μL^−1 when the cohort of animals was minimally symptomatic. Drugs were given for 3 days with a loading dose initially followed by ½ of the first dose on the 2nd and 3rd days.
Blood smear were collected once daily in the morning. Once positive parasitaemia was observed and reached 2000 parasites μL^−1, blood smears were collected twice, in the morning and afternoon. Blood for slides preparation were collected from ear for thick and thin smear preparation. Blood films on glass slides were air dried, fixed with 100 % methanol, stained with Giemsa, and read under ×100 magnification oil emersion for parasite determination.
First, a thick smear was performed for parasite detection by reading the slides at least 50 fields under ×100 magnification oil emersion.

P. falciparum clone (W2) = test: Ex vivo Plasmodium falciparum-based bioassay (BA) of rhesus plasma, effect kinetics (ePD) as DHA equivalents; format: cell-based
Experimental: Blood was collected for pharmacokinetic/pharmacodynamics (PK/PD) analysis after the first dose only due to rapid clearance of artemisinin derivatives. Heparinized blood was collected at 0, 5, 20, 40 min, 1, 3, and 6 h post-dose and plasma samples were separated within 2 h by centrifugation (1500g, 10 min). Aliquots of samples were made for simultaneous measurement by HPLC [16] and bioassay [14], and stored at −80 °C until analysis.
The plasma anti-malarial activities of the artemisinin derivatives were measured using a previously published method [14]. […] After centrifugation, the supernatant (100 µL) was transferred to a 96-well flat bottom plate. Twofold serial dilutions were then made using heat inactivated pooled control serum (human:rhesus = 1:1). A suspension of malaria (W2 clone) infected erythrocytes was added to each well. The microtitre plate was placed into a gas-tight plexiglass chamber, flushed with a gas mixture of 90 % CO2, 5 % O2, and 5 % N2, and placed into an incubator (37 °C). Following 24 h incubation, the plate was removed from the chamber and pulsed with [^3H]-hypoxanthine solution to each well and incubated for another 18–20 h before harvesting. The incorporation of [^3H]-hypoxanthine by the parasites in each well was determined by counting in a scintillation counter.
A dose–response curve for each plasma sample was constructed by plotting [^3H]-hypoxanthine uptake on the Y-axis against the corresponding dilution factor on the X-axis after logarithmic transformation. The dilution factor value that inhibits parasite growth by 50 % (DF50) of each plasma sample was determined.

[1] = rhesus monkey, in vivo
Experimental: (§1) These doses were chosen as the minimal effective doses (from previous model development and validation studies, unpublished data) and blood was collected for pharmacokinetic analysis. After a week wash-out and recovery period, P. coatneyi (1 mL of >50,000 parasitized RBCs per microlitre or 5 × 10^6 RBC with a 1 % parasitaemia) were inoculated from a donor monkey into all the monkeys. The treatment was initiated at day 6 after inoculation at a parasitaemia ≥3 % or >200,000 parasites μL^−1 when the cohort of animals was minimally symptomatic. Drugs were given for 3 days with a loading dose initially followed by ½ of the first dose on the 2nd and 3rd days.
(§2) Blood was collected for pharmacokinetic/pharmacodynamics (PK/PD) analysis after the first dose only due to rapid clearance of artemisinin derivatives. Heparinized blood was collected at 0, 5, 20, 40 min, 1, 3, and 6 h post-dose and plasma samples were separated within 2 h by centrifugation (1500g, 10 min). Aliquots of samples were made for simultaneous measurement by HPLC [16] and bioassay [14], and stored at −80 °C until analysis. All glassware was silanized before use with a 0.5 % aqueous solution (v/v) of Pierce Aquasil (Rockford, IL, USA) according to the manufacturer’s recommended procedure. Solid-phase extraction was performed on C-18 elution cartridge (3.0 ml, J.T. Baker Co.) using a VAC ELUTE SPS24 sample processing station (Analytichem International, Harbour City, CA, USA). The cartridge was preconditioned by sequential washing with 2.5 ml acetonitrile, 2.5 ml methanol and 2.5 ml water. One ml of distilled water was added to the cartridge before adding plasma sample (0.5 ml). Then, the cartridge was washed with 2.5 ml distilled water, 2.5 ml of 0.05 % H3PO4 (pH 4.5) and 2.5 ml of 20 % acetonitrile and completely dried by closing the vacuum for 15 min. The analytes were collected by eluting with 0.5 ml methanol three times and then with 0.5 ml 90:10 n-butyl chloride: ethyl acetate twice. The organic phases were pooled. The combined organic phases were then evaporated to dryness under a stream of nitrogen at room temperature. Extraction residues were reconstituted with 50:50 ethanol: water (0.3 ml), at least 16 h before injection. The injection volume was 100 µl for all samples.
(§3) The plasma concentration of parent drugs, AL and AS, and their primary metabolites, DHA and 2-hydroxyartelinate (OHAL) respectively, were measured by HPLC with electrochemical detection in reductive mode (HPLC-ECD) [16], which was the only method for artemisinin compounds then (Additional files 1 and 2).
(§4) HPLC with reductive electrochemical detection was performed using a model BAS 200B liquid chromatography (Bioanalytical Systems, Inc., West Lafayette, Indiana, USA). A Nova-Pak® C18 (3.9 × 150 mm, Waters Corporation, Milford, MA, USA) was used with 40 % acetonitrile in sodium acetate buffer (pH 3.6) as mobile phase. Detection was performed using a thin dual-layer glassy carbon electrode run in parallel mode at a potential of −1.0 V versus Ag/AgCl. The system was operated at the following temperatures: mobile phase 35 °C, column and detector oven 30 °C, cell 31 °C with the flow rate of 1.5 mL min^−1. Artemisinin (ART) was used as an internal standard. Samples were injected via Gilson model 231 XL sampling injector equipped with a 100 µL loop, a Gilson model 401 dilutor/pipettor, a sampler controller keypad (Gilson Medical Electronics, Middleton, WI, USA), and a Valco electrically actuated switching valve (Valco Instrument Co. Inc) was used. This system automatically deoxygenated and injected sample, which permits the high sample throughput associated with automated injection. Data were acquired and analysed using a Millennium^32 Chromatography Manager (Waters Corporation, Milford, MA, USA).

Plasmodium falciparum = tested on: Plasmodium falciparum; set-up: method as in Newton, 2000 [22]; conditions: Human, 2 mg kg^−1 IV AS, ref Newton, 2000 [22], cited from earlier work
[2] = set-up: method as in PMID 2631113; conditions: rats, 1 h following IV administration; cited from earlier work
in vivo = conditions: rhesus monkey; for AUC(0-t) / AUC(0-inf) / clearance / Cmax / half-life: iv, 8 mg/kg; for clearance: Cl
Experimental: as §1, §2, §3, §4

[3] = DHA equivalents, infected rhesus

## C[C@H]1[C@H](OC(=O)CCC(=O)O)O[C@@H]2O[C@@]3(C)CC[C@H]4[C@H](C)CC[C@@H]1[C@@]24OO3 [IV AS, Artesunic acid]
Plasmodium coatneyi; 0.29 day post-dose
  Parasite/µL, mean: 32,080 Parasite/µL
Plasmodium coatneyi; 0.29 day post-dose, IV AS experiment (mean; IM QN = its control monkey)
  Parasite Reduction: 88.6%
Plasmodium coatneyi; 1.00 day post-dose
  Parasite/µL, mean: 63,163 Parasite/µL
Plasmodium coatneyi; 1.00 day post-dose, IV AS experiment
  Parasite Reduction: 81.1%
Plasmodium coatneyi; 1.29 day post-dose
  Parasite/µL, mean: 9,364 Parasite/µL
Plasmodium coatneyi; 1.29 day post-dose, IV AS experiment
  Parasite Reduction: 97.1%
Plasmodium coatneyi; 2.00 day post-dose
  Parasite/µL, mean: 1,383 Parasite/µL
Plasmodium coatneyi; 2.00 day post-dose, IV AS experiment
  Parasite Reduction: 99.4%
Plasmodium coatneyi; 2.29 day post-dose
  Parasite/µL, mean: 345 Parasite/µL
Plasmodium coatneyi; 2.29 day post-dose, IV AS experiment
  Parasite Reduction: 99.8%
Plasmodium coatneyi; 3.00 day post-dose
  Parasite/µL, mean: 96 Parasite/µL
Plasmodium coatneyi; 3.00 day post-dose, IV AS experiment
  Parasite Reduction: 100.0%
Plasmodium coatneyi; 3.29 day post-dose, IV AS experiment
  Parasite Reduction: 99.9%
Plasmodium coatneyi; 4.00 day post-dose
  Parasite/µL, mean: 66 Parasite/µL
Plasmodium coatneyi; 4.00 day post-dose, IV AS experiment
  Parasite Reduction: 100.0%
Plasmodium coatneyi; 4.29 day post-dose
  Parasite/µL, mean: 87 Parasite/µL
Plasmodium coatneyi; 4.29 day post-dose, IV AS experiment
  Parasite Reduction: 100.0%
Plasmodium coatneyi; 5.00 day post-dose
  Parasite/µL, mean: 60 Parasite/µL
Plasmodium coatneyi; 5.00 day post-dose, IV AS experiment
  Parasite Reduction: 100.0%
Plasmodium coatneyi; 5.29 day post-dose
  Parasite/µL, mean: 31 Parasite/µL
Plasmodium coatneyi; 5.29 day post-dose, IV AS experiment
  Parasite Reduction: 100.0%
Plasmodium coatneyi; 6.00 day post-dose
  Parasite/µL, mean: 13 Parasite/µL
Plasmodium coatneyi; 6.00 day post-dose, IV AS experiment
  Parasite Reduction: 100.0%
Plasmodium coatneyi; 6.29 day post-dose
  Parasite/µL, mean: 23 Parasite/µL
Plasmodium coatneyi; 6.29 day post-dose, IV AS experiment
  Parasite Reduction: 100.0%
Plasmodium coatneyi; 7.00 day post-dose
  Parasite/µL, mean: 15 Parasite/µL
Plasmodium coatneyi; 7.00 day post-dose, IV AS experiment
  Parasite Reduction: 100.0%
Plasmodium coatneyi; 8.00 day post-dose
  Parasite/µL, mean: 4 Parasite/µL
Plasmodium coatneyi; 8.00 day post-dose, IV AS experiment
  Parasite Reduction: 100.0%
Plasmodium coatneyi; 9.00 day post-dose
  Parasite/µL, mean: 2 Parasite/µL
Plasmodium coatneyi; 9.00 day post-dose, IV AS experiment
  Parasite Reduction: 100.0%
Plasmodium coatneyi; 10.00 day post-dose
  Parasite/µL, mean: 0 Parasite/µL
Plasmodium coatneyi; 10.00 day post-dose, IV AS experiment
  Parasite Reduction: 100.0%
Plasmodium coatneyi; IV AL: the only two determinable, IV AS: the two most rapid
  PCT of individual animals: 4.0 days and 5.0 days
Plasmodium coatneyi; in vivo
  Recrudescence, median (range, n): 13 (9–19, 10) days
Plasmodium coatneyi; n 2 IV AL, n 10 IV AS
  R, Day (recrudescence day), mean: 13 days
Plasmodium coatneyi; range in evaluable animals (4 of 8 IV AL, 3 of 10 IV AS)
  PC50: 0.32 to 5.88 h
Plasmodium coatneyi; without the two most rapid
  Median PCT of the remaining eight monkeys: 8.0 days
P. falciparum clone (W2); 0.08 h, healthy rhesus
  Antimalarial activity expressed as DHA equi., mean: 17.94 µmol/L
P. falciparum clone (W2); 0.08 h, infected rhesus
  Antimalarial activity expressed as DHA equi., mean: 22.45 µmol/L
P. falciparum clone (W2); 0.33 h, healthy rhesus
  Antimalarial activity expressed as DHA equi., mean: 5.77 µmol/L
P. falciparum clone (W2); 0.33 h, infected rhesus
  Antimalarial activity expressed as DHA equi., mean: 4.28 µmol/L
P. falciparum clone (W2); 0.67 h, healthy rhesus
  Antimalarial activity expressed as DHA equi., mean: 3.16 µmol/L
P. falciparum clone (W2); 0.67 h, infected rhesus
  Antimalarial activity expressed as DHA equi., mean: 3.19 µmol/L
P. falciparum clone (W2); 1.0 h, healthy rhesus
  Antimalarial activity expressed as DHA equi., mean: 1.75 µmol/L
P. falciparum clone (W2); 1.0 h, infected rhesus
  Antimalarial activity expressed as DHA equi., mean: 1.58 µmol/L
P. falciparum clone (W2); 3.0 h, healthy rhesus
  Antimalarial activity expressed as DHA equi., mean: 0.22 µmol/L
P. falciparum clone (W2); 3.0 h, infected rhesus
  Antimalarial activity expressed as DHA equi., mean: 0.12 µmol/L
P. falciparum clone (W2); 6.0 h, healthy rhesus
  Antimalarial activity expressed as DHA equi., mean: 0 µmol/L
P. falciparum clone (W2); 6.0 h, infected rhesus
  Antimalarial activity expressed as DHA equi., mean: 0 µmol/L
P. falciparum clone (W2); [3]
  AUC0–20, ePD: 242 µM·min
  AUC0–∞, ePD: 485 µM·min
P. falciparum clone (W2); mean, healthy rhesus
  Bioactivity %AUC20: 48.3%
  Bioactivity Cl: 3.07 L hr^-1 kg ^-1
P. falciparum clone (W2); mean, infected rhesus
  Bioactivity %AUC20: 55.0%
  Bioactivity (DHA equi.) AUC(0-inf): 476 (346–607) µmole min L^-1
  Bioactivity Cl: 3.18 (2.25–4.11) L hr^-1 kg ^-1
P. falciparum clone (W2); mean, infected rhesus, listed as I.V. AS/Na
  Bioactivity Cl: 3.18 L hr^-1 kg ^-1
[1]
  t1/2, metabolite (M): 31.1 min
[1]; iv, 8 mg/kg
  Cl: 4.38 L hr^-1 kg ^-1
Plasmodium falciparum; mean (95 % CI)
  AUC (ePD): 636 (524–748) µmol min L^−1
Plasmodium falciparum
  Cl (ePD): 0.83 (0.70–0.96) L h^−1 kg^−1
[2]
  tissue levels: high levels of AS were found in brain, fat, intestine and serum
In vivo; Plasma concentration, mean
  concentration at 1 h: 0.05 µM
  concentration at 3 h: 0 nM
  concentration at 6 h: 0 nM
In vivo; AUC 0-20
  AUC(0-t): 4.78 µM·h
In vivo; AUC0–20, parent compound (P)
  AUC(0-t): 4.8 µM·h
In vivo; AUC0–20, parent drug
  AUC(0-t): 4.8 µM·h
In vivo; AUC0–∞, parent compound (P)
  AUC(0-inf): 4.8 µM·h
In vivo; AUC0–∞, parent drug
  AUC(0-inf): 4.8 µM·h
In vivo; AUC(0-inf)
  AUC(0-inf): 5.2 µM·h
In vivo
  clearance: 78.3 mL/min/kg
In vivo; parent
  clearance: 72.3 mL/min/kg
In vivo; parent compound (P)
  Cmax: 28.2 µM
In vivo; parent drug
  Cmax: 28.2 µM
In vivo; t1/2, parent compound (P)
  half-life: 3.47 min
In vivo; t 1/2, z
  half-life: 4.17 min
